Patent publication US6824990B1, “Methods of detecting and modulating oligomerization of G protein-coupled receptors” (priority 1999, dated 2004)

Tests used:
[1] = target: T1, Ste2Δtail-CFP and Ste2Δtail-YFP (Saccharomyces cerevisiae, UniProt D6VTK4); assay: FRET in purified plasma membrane fractions; assay type: biochemical, S. cerevisiae
T1 construct: CFP and YFP were joined 8 amino acids (position 304) beyond transmembrane domain VII of the α-factor receptor; expressed in transfected cells; host or cells: S. cerevisiae KBY58 (ste2Δ), single copy plasmids, STE2 promoter
T1 sequence (D6VTK4 1-304, stated change not applied): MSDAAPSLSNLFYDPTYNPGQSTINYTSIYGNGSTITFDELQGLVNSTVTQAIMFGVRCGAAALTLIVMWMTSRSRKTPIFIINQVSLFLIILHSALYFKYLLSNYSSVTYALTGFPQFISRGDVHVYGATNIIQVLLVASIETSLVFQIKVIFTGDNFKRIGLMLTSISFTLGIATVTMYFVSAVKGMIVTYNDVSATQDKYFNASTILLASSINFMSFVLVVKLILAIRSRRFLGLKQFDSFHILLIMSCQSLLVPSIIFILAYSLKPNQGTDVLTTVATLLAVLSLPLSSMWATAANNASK
Procedure: Yeast cells expressed tailless α-factor receptors fused to CFP or YFP (Ste2-CFP or -YFP) and/or glucose transporters fused to YFP (Hxt1-YFP), as indicated. Untagged α-factor receptors (Ste2) or glucose transporters (Hxt1) were overexpressed where indicated. Intact cells (panels a-g) or plasma membrane fractions (panels h-i) were excited at the λmax of CFP (440 nm) and fluorescence emission was detected by scanning fluorometry. Fluorescence emission due to FRET (FRET) was determined as: (emission spectrum of cells co-expressing CFP and YFP fusion proteins)—(emission spectrum of cells expressing CFP fusion alone)—(emission spectrum of cells expressing YFP fusion alone). The efficiency of FRET (panel e) was determined as: (integrated FRET curve)/(integrated emission curve obtained upon direct excitation of YFP at 490 nm). In panels f, g and i, only the FRET emission curves are shown for experiments performed under the indicated conditions. […]
CFP and YFP were joined 8 amino acids (position 304) beyond transmembrane domain VII of the α-factor receptor (STE2 gene product) and at the immediate C-terminus of a glucose transporter (HXT1 gene product). These fusion proteins were expressed from the STE2 promoter on single copy plasmids with different selectable markers, allowing them to be co-expressed at similar levels as shown by quantitation of CFP and YFP fluorescence. […]

[2] = tested on: Ste2Δtail-CFP and Ste2Δtail-YFP; assay: FRET between CFP- and YFP-tagged tailless α-factor receptors in intact yeast cells; assay type: cell-based, S. cerevisiae; conditions: cells treated with latrunculin B
Procedure: (§1) Yeast cells expressed tailless α-factor receptors fused to CFP or YFP (Ste2-CFP or -YFP) and/or glucose transporters fused to YFP (Hxt1-YFP), as indicated. Untagged α-factor receptors (Ste2) or glucose transporters (Hxt1) were overexpressed where indicated. Intact cells (panels a-g) or plasma membrane fractions (panels h-i) were excited at the λmax of CFP (440 nm) and fluorescence emission was detected by scanning fluorometry. Fluorescence emission due to FRET (FRET) was determined as: (emission spectrum of cells co-expressing CFP and YFP fusion proteins)—(emission spectrum of cells expressing CFP fusion alone)—(emission spectrum of cells expressing YFP fusion alone). The efficiency of FRET (panel e) was determined as: (integrated FRET curve)/(integrated emission curve obtained upon direct excitation of YFP at 490 nm). In panels f, g and i, only the FRET emission curves are shown for experiments performed under the indicated conditions. The results shown in each panel are representative of at least 6 independent experiments, with equivalent results.
(§2) CFP and YFP were joined 8 amino acids (position 304) beyond transmembrane domain VII of the α-factor receptor (STE2 gene product) and at the immediate C-terminus of a glucose transporter (HXT1 gene product). These fusion proteins were expressed from the STE2 promoter on single copy plasmids with different selectable markers, allowing them to be co-expressed at similar levels as shown by quantitation of CFP and YFP fluorescence. Ste2Δtail-CFP and -YFP fusions had normal agonist binding affinities (1-2 nM) and cell surface expression (6-8,000 receptors/cell), as determined by radioligand binding assays. […] Yeast cells (KBY58, a ste2Δ mutant) expressing CFP and/or YFP fusion proteins were grown at 30° C. in selective media to a density of 10^7 cells/ml, washed, suspended in 50 mM PIPES, pH 6.0 and analyzed by scanning fluorometry. […] Cells (10^7 cells in 3 ml) or membranes (20 μg protein in 3 ml) were irradiated at 440 nm to excite CFP and fluorescence emission was recorded from 460-610 nm. […]

[3] = target: T1, Ste2Δtail-CFP and Ste2Δtail-YFP; assay: as above; assay type: cell-based, S. cerevisiae
Procedure: as §1, §2

## Nc1nc2c(ncn2[C@@H]2O[C@H](COP(=O)(O)OP(=O)(O)OP(O)(O)=S)[C@@H](O)[C@H]2O)c(=O)[nH]1 [GTP-γS]
[1]; 5 μM agonist and 50 μM GTP-γS (activated and uncoupled), indistinguishable from inactive, n=11
  apparent efficiency of FRET: 20%±2%
[1]; given membrane preparation, GTP-γS 50 μM
  effect on efficiency of FRET: no effect

## C/C1=C/C(=O)O[C@@H]2C[C@@H](CC[C@H](C)/C=C\CC1)O[C@@](O)([C@@H]1CSC(=O)N1)C2 [latrunculin B]
[2]
  FRET when the actin cytoskeleton was disassembled: FRET was detected

## desTrp1,Ala3,Nle12-α-factor
[3]; given transformant, 1 nM-5 μM, 1-20 min after addition
  effect on efficiency of FRET: no effect
[3]; treated cells, sub-saturating to saturating ligand concentrations, indistinguishable from control cells, n=6
  apparent efficiency of FRET: 18%±1
